Marks after values point to notes of the source that are not given here.
Assays:
ovine blastocysts = assay: Total number of blastocyst cells (DAPI staining) after in vitro maturation of ovine oocytes; format: cell-based, sheep; settings: ovine 7d blastocysts, FIG. 3
Excerpt: FIG. 3 Statistical analysis of the total number of blastocyst cells after different treatments of sheep oocyte in vitro maturation. Among them, the control group is a routine in vitro maturation group, and treatment groups 1-7 are: VitC alone group, L-carnitine alone group, THPO alone group, VitC and L-carnitine combined administration group, VitC and THPO combined administration group, L-carnitine and THPO combined administration group, VitC, L-carnitine, and THPO combined administration group. The total number of blastocyst cells were obtained by counting cells after DAPI immunofluorescence staining.
(§1) • Control group: a routine in vitro maturation group. • Treatment group 1: a VitC (100 μg/mL)—only administration group. • Treatment group 2: an L-carnitine (1 mg/mL)—only administration group. • Treatment group 3: a THPO (200 ng/mL)—only administration group. • Treatment group 4: a VitC (50 μg/mL) and L-carnitine (500 μg/mL) combined administration group. • Treatment group 5: a VitC (50 μg/mL) and THPO (100 ng/ml) combined administration group. • Treatment group 6: an L-carnitine (500 μg/mL) and THPO (100 ng/ml) combined administration group. • Treatment group 7: a VitC (33.3 μg/mL), L-carnitine (333.3 μg/mL), and THPO (66.7 ng/mL) combined administration group.
The 7d blastocysts were collected, washed 3 times with PBS containing 1 mg/ml PVA (PBS-PVA), and stained with DAPI, and the total blastocyst cell number was then determined. Specifically, the zona pellucida was removed with Tyrode's medium, and the blastocysts were then fixed in PBS containing 4% polyformaldehyde for 30 min and permeabilized using PBS containing 0.5% TritonX-100 for 20 min at room temperature. The nuclei of the blastocysts were stained with 1 μg/mL DAPI, incubated for 5 min in the dark, and then mounted onto slides. DAPI cells were observed and counted under a fluorescence microscope.

bovine oocytes (COCs) = assay: In vitro maturation of bovine oocytes, in vitro fertilization and embryo culture: embryo development rate; format: cell-based; settings: for D8 blastocyst rate (%): 8 d postinsemination, number of blastocysts/number of oocytes; for effect on 48-h cleavage rate compared with the control group / effect on blastocyst development efficiency compared with the control group: in words; for 48-h cleavage rate (%): number of two-cell embryos/number of oocytes
Method: (§2) • Control group: a routine in vitro maturation group; • Treatment group 1: a VitC (100 μg/mL)—only administration group; • Treatment group 2: an L-carnitine (1 mg/mL)—only administration group; • Treatment group 3: a THPO (200 ng/mL)—only administration group; • Treatment group 4: a VitC (50 μg/mL) and L-carnitine (500 μg/mL) combined administration group; • Treatment group 5: a VitC (50 μg/mL) and THPO (100 ng/ml) combined administration group; • Treatment group 6: an L-carnitine (500 μg/mL) and THPO (100 ng/mL) combined administration group; • Treatment group 7: a VitC (33.3 μg/mL), L-carnitine (333.3 μg/mL), and THPO (66.7 ng/mL) combined administration group.
(§3) The control group was a basal in vitro maturation medium, and the treatment groups (1-7) were prepared by adding different components or combined components to the basal maturation medium.
Bovine ovaries were collected from a local slaughterhouse (Dachang Hui Autonomous County, Hebei Province, China) and transported to the laboratory within two hours in saline solution containing penicillin and streptomycin. In the laboratory, bovine COCs were aspirated from follicles with a diameter of 2-8 mm to M199-HEPES containing 20 μg/mL heparin sodium, 44 μg/mL sodium pyruvate, 70 μg/mL penicillin and 50 μg/mL streptomycin. The aspirated follicular fluid was placed in 50 ml conical tubes and maintained for a period for sedimentation. The upper portion of the liquid was removed and the remaining portion was then transferred to wash buffer. COCs with a homogenous, evenly granulated ooplasm surrounded by at least three layers of compact cumulus cells were selected under a stereomicroscope for experiments. COCs were washed three times in BO-IVM medium and incubated for 22 h at 38.5° C. in a humidified atmosphere under 5% CO2 in groups of 50 containing 500 μL BO-IVM medium in four-well dishes covered with mineral oil.
After 22 h of IVM, 20 COCs were transferred to 100 μL BO-IVF medium covered with mineral oil in Petri dish (60×15 mm). Frozen-thawed sperm was purified using BO-SemenPrep. Spermatozoa were selected by Percoll method and the final concentration was adjusted to 1×10^6 in each drop. They were co-incubated in BO-IVF medium with humidified 5% CO2 in air at 38.5° C. for 18 h. Thereafter, the presumptive zygotes were transferred to BO-IVC medium in four-well dishes covered with mineral oil, and incubated with humidified 5% CO2 in air at 38.5° C. for 8 days. The cleavage rate was determined at 48 h and the blastocyst rate was estimated at 8d postinsemination.

[1] = tested on: ovine oocytes (cumulus-oocyte complexes); assay: In vitro maturation of ovine oocytes, in vitro fertilization and embryo culture: embryo development rate; format: cell-based, sheep; settings: mean ± standard error; for Cleavage rate (%): 48 h after IVF, modulators added to in vitro maturation medium; for D7 blastocyst rate (%): day 7 of culture
Method: Ovine ovaries were collected in a slaughterhouse, placed in normal saline at 35° C., and transported to the laboratory within 2 h. The ovaries were washed three times with normal saline, and follicles were punctured using a 20 G needle containing 5 mL of oocyte collection medium to release cumulus-oocyte complexes. The COCs with uniform cytoplasm and at least 3 layers of cumulus cells were collected Under a stereomicroscope.
as §1, §3
The collected ovine oocytes were washed three times with washing medium, then washed 3 times with the basal in vitro oocyte maturation medium pre-equilibrated for 3 h in advance, transferred to the in vitro maturation culture mediums of the control and experimental groups, and incubated in a 5% CO2, 38.5° C. incubator with saturated humidity for 22-24 h. Four-well plates were used for culture, and each well contained 600 μL of in vitro maturation culture medium and 30-35 ovine cumulus-oocyte complexes, and was covered with 300 μL of mineral oil. In vitro maturation of ovine oocytes was performed according to different groups.
For the control group, the basal in vitro oocyte maturation medium was used. The basal in vitro oocyte maturation medium was prepared as follows: TCM199+10% estrus ovine serum+1 μg/mL follicle-stimulating hormone+1 μg/mL luteinizing hormone+1 μg/mL β-estradiol+12 μg/mL DL-cysteine+100 μg/mL streptomycin+100 IU/mL penicillin.
After in vitro maturation, the matured oocytes were subjected to in vitro fertilization (IVF). Briefly, COCs were washed three times in synthetic oviductal fluid (SOF) medium with 0.2% hyaluronidase to remove cumulus cells and transferred into the IVF medium, which consisted of synthetic oviduct fluid (SOF) medium containing 2% estrus sheep serum (ESS), 3 mg/mL BSA, 6 IU/mL heparin sodium and 50 IU/mL gentamicin. For IVF, frozen semen was removed from the liquid nitrogen and thawed in a water bath at 39° C. for 1 min. Then, the sperm diluted with IVF medium and swimming up for 30 min at 38.5° C. in a humidified atmosphere at 5% CO2. The upper layer of semen was transferred into a 1.5 mL tube and then centrifuge for 5 min at 2000 rpm. The spermatozoa were carefully collected from the bottom of the centrifuge tube and added into each IVF medium with a final concentration of approximately 1×10^6 sperm/mL. Then, the oocyte and sperm were co-incubated for 20 h at 38.5° C. with 5% CO2 in a humidified atmosphere. All reagents were purchased from Sigma-Aldrich.
After IVF, presumptive zygotes were washed three times in IVC medium and then transferred to SOF medium supplemented with 1% BME-essential amino acids, 1% MEM-nonessential amino acids, 1 mM glutamine and 3 mg/mL BSA and cultured at 38.6° C. in a humidified environment with an 88% N2, 5% CO2, 7% O2. The cleavage rate and blastocyst rate were recorded at 48 h and 6-7 d after IVF. After 48 h of culture, the cleavage rate was calculated. The culture was continued until day 7, and the blastocyst rate was calculated.

recipient ewes = assay: Ovine embryo transfer and pregnancy assessment; format: in vivo, sheep; settings: for Pregnancy rate (%): 45 d after embryo transfer; for Number of pregnancies: B-ultrasonography 45 d after embryo transfer
Method: as §1
Transferrable embryo were selected and one blastocyst was transferred into recipient ewes using a laparoscopic procedure. Prior to embryo transfer, the ewes were fasted for at least 20 h. The embryos were transplanted into recipients with an assistant of endoscopic apparatus. The conception was detected at 45 d after embryo transfer by using B-ultrasonography and the embryo transfer pregnancy rate was calculated using the formula: […]

bovine recipients = assay: Bovine embryo transfer and pregnancy rate assessment; format: in vivo; settings: for Number of pregnancies: B-mode ultrasonography days 45-50; for Pregnancy rate (%): days 45-50, pregnant/recipient female animals
Method: as §2
The bovine recipients were restrained and anesthetized according to requirement of sartificial insemination. After the vulva was cleaned and disinfected, the cervix was opened and the fallopian tubes were flushed. The embryo transfer catheter was inserted deep into one uterine horn using the rectal palpation method. The plunger of a syringe connected to embryos transfer catheter was pushed to inject the embryos that had developed to the blastocyst stage after in vitro fertilization, and the embryo transfer catheter was then withdrawn. The pregnancy status was assessed by B-mode ultrasonography on days 45-50 of pregnancy, and the pregnancy rate was calculated.

Molecule	total number of blastocyst cells (ovine blastocysts)	D8 blastocyst rate (%) (bovine oocytes (COCs))	effect on 48-h cleavage rate compared with the control group (bovine oocytes (COCs))	effect on blastocyst development efficiency compared with the control group (bovine oocytes (COCs))	48-h cleavage rate (%) (bovine oocytes (COCs))	Cleavage rate (%) [1]	D7 blastocyst rate (%) [1]	Pregnancy rate (%) (recipient ewes)	Number of pregnancies (recipient ewes)	Number of pregnancies (bovine recipients)	Pregnancy rate (%) (bovine recipients)	effect on pregnancy rate after embryo transfer compared with the control group (bovine recipients; in words)
O=C1O[C@H]([C@@H](O)CO)C(O)=C1O [Treatment group 1, vitamin C]	80.6±3.2	33.1 ± 1.3^b %	did not affect	enhanced	68.7 ± 3.1	75.64 ± 2.83^a %	38.79 ± 1.97^b %	50.0^a %	25	11	42.3%^a	
C[N+](C)(C)C[C@H](O)CC(=O)[O-] [Treatment group 2, L-carnitine]	82.6±2.7	32.4 ± 0.8^b %	did not affect	enhanced	69.5 ± 4.3	74.32 ± 2.31^a %	37.61 ± 1.85^b %	54.2^a %	26	12	46.2%^b	can improve
Thrombopoietin [Treatment group 3]	79.4±2.3	32.2 ± 2.0^b %			67.4 ± 3.8	75.38 ± 2.43^a %	38.01 ± 1.50^b %	53.1^a %	26	11	42.3%^a	
